Experimental data reported in patent publication US7989004B2, “Antitubercular extracts of Salicornia brachiata” (Council of Scientific and Industrial Research, priority 2004, dated 2011).

Test system: M. tuberculosis H37Rv
Assay: BACTEC method of in-vitro screening (growth index, radiometric 7H12 broth)
Type: cell-based
Conditions: 100 μg/mL

OC[C@H]1O[C@@](CO)(O[C@H]2O[C@H](CO)[C@@H](O)[C@H](O)[C@H]2O)[C@@H](O)[C@@H]1O [sucrose]
inhibition of growth: no inhibition
